Reference: patent publication US12630501B2, “Anti-fibrotic compounds and use thereof” (HADASIT MEDICAL RESEARCH SERVICES AND DEVELOPMENT LTD., priority 2019, dated 2026)
Several values for one entry are separate records, joined by “and”; a condition that tells them apart may be missing. Equal entries are not always repeated.

Legend:
Assay type in all cases: cell-based, human
FLIP = FLIP protein by Western blot and flow cytometry in IPF-lung myofibroblasts; details: 16 h
Procedure: (§1) Human lung myofibroblasts Differentiated fibroblasts from IPF-lungs and controls from patient lung biopsies performed for tumor diagnosis were obtained under a protocol detailed in Wallach-Dayan et al., J. Autoimmun. 59: 67-76, 2015. LL 97A (AlMy) (ATCC® CCL-191™)-IPF-lung, and LL 24 (ATCC® CCL-151™)-normal lung fibroblast cell lines were used.
FLIP protein in lung myofibroblasts Standard WB and flow cytometry were performed as described in Cohen et al., Am. J. Respir. Cell Mol. Biol. 40: 231-238, 2009.
(§2) FLIP downregulation from an OD of 1.85 to 0.49 (about 3.5-fold) was detected in WB (FIG. 4F), and a […] from a mean fluorescence intensity (MFI)=10^3 to only 10^1 was detected with flow cytometry (FIG. 4G). Thus, SIRT1-mediated Ku70-deacetylation stabilizes IPF-lung myofibroblast FLIP via Ku70/FLIP complex. This effect of CMH on Ku70 further disrupts Ku70/FLIP complex and destabilizes FLIP in IPF-lung myofibroblasts.
(§3) IPF cell line ATCC-191 (0.5×10^6), were exposed in culture (10% DMEM) to a compound of Formula 6 (1 or 3 μM) vs. 4% DMSO (vehicle) for 16 h. Ku70 immunoprecipitation with subsequent pan-acetyl (FIG. 8A) and immunoblots of Ku70 with anti-Ku70 mAb (FIG. 8B) or FLIP with anti-FLIP mAb (FIG. 8C) were measured. […] IPF-lung myofibroblasts decreased FLIP expression from an OD of 1.00 to 0.51 (about twofold, FIG. 8C).
IPF cell line ATCC-191 (0.5×10^6), were exposed in culture (10% DMEM) to a compound of Formula 12 (1 μM), vs. 4% DMSO (vehicle) for 16 h. Immunoblots of FLIP with anti-FLIP mAb were performed (FIG. 9). […] Thus, the compound of Formula 12 attenuates FLIP stabilization in IPF-lung myofibroblast.

Ku70 = Ku70 immunoprecipitation with pan-acetyl / Ku70 immunoblot in IPF-lung myofibroblasts
Procedure: as §1
Immunoprecipitation and immunoblotting Standard protocols were performed as described in Golan-Gerstl et al., Am. J. Respir. Cell Mol. Biol. 47: 271-279, 2012.
as §2, §3

IPF cell line ATCC-191 = assay: Caspase-3 cleaved vs. uncleaved immunoblot (direct cytotoxicity); details: 72 h
Procedure: IPF cell line ATCC-191 (0.5×10^6), were exposed in culture (10% DMEM) to a compound of Formula 6 (0.1-30 μM) vs. 4% DMSO (vehicle) for 72 h. Cells were lysed and immunoblots of caspase-3 cleaved vs. uncleaved were performed. […] Lower concentrations of a compound of Formula 6 treated cells even decreased their ratio indicating no toxicity of the analogue at these concentrations.

O=C(CCCCOc1ccc2ccccc2c1)NO [Formula 6]
Decrease of FLIP expression (FLIP; Formula 6 1 or 3 μM): about twofold | FLIP expression OD (anti-FLIP immunoblot) (FLIP; Formula 6 1 or 3 μM, ATCC-191, vehicle 1.00): 0.51 OD | Increase of Ku70 acetylation (Ku70; Formula 6 1 μM, 16 h): about 80 fold | Ku70 levels (anti-Ku70 immunoblot) (Ku70; Formula 6 1 μM, 16 h): without changing | Ku70 acetylation, optical density ratio to GAPDH (OD), pan-acetyl IB of Ku70 IP (Ku70; Formula 6 1 μM, 16 h, ATCC-191, vehicle 0.007): 0.55 OD | Inhibition of Ku70-deacetylation compared with CMH (Ku70; IPF-lung myofibroblasts): to a greater extent than CMH | Cleaved caspase-3 (IPF cell line ATCC-191; 0.1 μM): 7.5 | Cleaved/Uncleaved caspase-3 (IPF cell line ATCC-191; 0.1 μM): 0.27 | Uncleaved caspase-3 (IPF cell line ATCC-191; 0.1 μM): 27.37 | Cleaved caspase-3 (IPF cell line ATCC-191; 0.3 μM): 11.66 | Cleaved/Uncleaved caspase-3 (IPF cell line ATCC-191; 0.3 μM): 0.18 | Uncleaved caspase-3 (IPF cell line ATCC-191; 0.3 μM): 65.84 | Cleaved caspase-3 (IPF cell line ATCC-191; 1 μM): 27.59 | Cleaved/Uncleaved caspase-3 (IPF cell line ATCC-191; 1 μM): 0.46 | Uncleaved caspase-3 (IPF cell line ATCC-191; 1 μM): 60.57 | Cleaved caspase-3 (IPF cell line ATCC-191; 3 μM): 81.78 | Cleaved/Uncleaved caspase-3 (IPF cell line ATCC-191; 3 μM): 1.10 | Uncleaved caspase-3 (IPF cell line ATCC-191; 3 μM): 74.31 | Cleaved caspase-3 (IPF cell line ATCC-191; 10 μM): 112.38 | Cleaved/Uncleaved caspase-3 (IPF cell line ATCC-191; 10 μM): 1.43 | Uncleaved caspase-3 (IPF cell line ATCC-191; 10 μM): 78.84 | Cleaved caspase-3 (IPF cell line ATCC-191; 30 μM): 93.19 | Cleaved/Uncleaved caspase-3 (IPF cell line ATCC-191; 30 μM): 2.49 | Uncleaved caspase-3 (IPF cell line ATCC-191; 30 μM): 37.4 | Direct cytotoxic effects on cells (IPF cell line ATCC-191; 0.1-30 μM, in the absence of Fas): does not exert direct cytotoxic effects

COc1ccc(OCCCCC(=O)NO)cc1 [Formula 12]
Decrease of FLIP levels (FLIP; Formula 12 1 μM): about twofold | FLIP levels, optical density ratio to GAPDH (OD) (FLIP; Formula 12 1 μM, ATCC-191, vehicle 9.5, 13.3 and 8.4): 4.7 OD and 3.7 OD and 4.8 OD
